Measured values from US20200404914A1, “HERBICIDALLY ACTIVE BICYCLIC BENZAMIDES” (Bayer Aktiengesellschaft, priority 2018, published 2020).

Legend:
[1] = test system: monocotyledonous and dicotyledonous weed plants; test: Pre-emergence herbicidal action (greenhouse pot test, visual scoring after about 3 weeks); type: in vivo; settings: for Herbicidal activity ABUTH (Abutilon theophrasti) / Herbicidal activity AMARE (Amaranthus retroflexus) / Herbicidal activity ECHCG (Echinochloa crus-galli) / Herbicidal activity MATIN (Matricaria inodora) / Herbicidal activity STEME (Stellaria media) / Herbicidal activity VERPE (Veronica persica) / Herbicidal activity VIOTR (Viola tricolor) / Herbicidal activity AVEFA (Avena fatua) / Herbicidal activity CYPES (Cyperus esculentus) / Herbicidal activity PHBPU (Ipomoea purpurea) / Herbicidal activity POLCO (Polygonum convolvulus) / Herbicidal activity SETVI (Setaria viridis): pre-emergence (PE)
Text: In the tables below, the following abbreviations are used: Undesired Plants/Weeds: [table] 1. Pre-Emergence Herbicidal Action and Crop Plant Compatibility Seeds of monocotyledonous and dicotyledonous weed plants and crop plants are placed in plastic or organic planting pots and covered with soil. The compounds of the invention, formulated in the form of wettable powders (WP) or as emulsion concentrates (EC), are then applied onto the surface of the covering soil as aqueous suspension or emulsion with addition of 0.5% additive at a water application rate of […] (converted). After the treatment, the pots are placed in a greenhouse and kept under good growth conditions for the trial plants. After about 3 weeks, the effect of the preparations is scored visually in comparison with untreated controls as percentages. The tables below show the herbicidal activity of numerous compounds according to the invention against important harmful plants. For example, 100% activity=the plants have died, 0% activity=like control plants.

[2] = test system: monocotyledonous and dicotyledonous weeds; test: Post-emergence herbicidal action (greenhouse pot test, visual rating after about 3 weeks); type: in vivo; settings: for Herbicidal activity ABUTH (Abutilon theophrasti) / Herbicidal activity AMARE (Amaranthus retroflexus) / Herbicidal activity ECHCG (Echinochloa crus-galli) / Herbicidal activity VIOTR (Viola tricolor) / Herbicidal activity MATIN (Matricaria inodora) / Herbicidal activity SETVI (Setaria viridis) / Herbicidal activity STEME (Stellaria media) / Herbicidal activity VERPE (Veronica persica): post-emergence (PO)
Procedure: In the tables below, the following abbreviations are used: Undesired Plants/Weeds: [table] 2. Post-Emergence Herbicidal Action and Crop Plant Compatibility Seeds of monocotyledonous and dicotyledonous weeds and crop plants are placed in sandy loam in plastic or organic planting pots, covered with soil and cultivated in a greenhouse under controlled growth conditions. 2 to 3 weeks after sowing, the test plants are treated at the one-leaf stage. The compounds of the invention, formulated in the form of wettable powders (WP) or as emulsion concentrates (EC), are then sprayed onto the green parts of the plants as aqueous suspension or emulsion with addition of 0.5% additive at a water application rate of […] (converted). After the test plants had been kept in the greenhouse under optimum growth conditions for about 3 weeks, the activity of the preparations is rated visually in comparison to untreated controls. The tables below show the herbicidal activity of numerous compounds according to the invention against important harmful plants. For example, 100% activity=the plants have died, 0% activity=like control plants.

[3] = application rate 80, about 3 weeks
[4] = application rate 20, about 3 weeks
[5] = application rate 320, about 3 weeks
[6] = pre-emergence comparative experiment, dosage 320 g/ha
[7] = post-emergence comparative experiment, dosage 80 g/ha

SMILES	Herbicidal activity ABUTH (Abutilon theophrasti) [1, 5] [%]	Herbicidal activity AMARE (Amaranthus retroflexus) [1, 5] [%]	Herbicidal activity AVEFA (Avena fatua) [1, 5] [%]	Herbicidal activity CYPES (Cyperus esculentus) [1, 5] [%]	Herbicidal activity ECHCG (Echinochloa crus-galli) [1, 5] [%]	Herbicidal activity MATIN (Matricaria inodora) [1, 5] [%]	Herbicidal activity PHBPU (Ipomoea purpurea) [1, 5] [%]	Herbicidal activity POLCO (Polygonum convolvulus) [1, 5] [%]	Herbicidal activity SETVI (Setaria viridis) [1, 5] [%]	Herbicidal activity STEME (Stellaria media) [1, 5] [%]	Herbicidal activity VERPE (Veronica persica) [1, 5] [%]	Herbicidal activity VIOTR (Viola tricolor) [1, 5] [%]	Herbicidal activity ABUTH (Abutilon theophrasti) [2, 3] [%]	Herbicidal activity AMARE (Amaranthus retroflexus) [2, 3] [%]	Herbicidal activity ECHCG (Echinochloa crus-galli) [2, 3] [%]	Herbicidal activity MATIN (Matricaria inodora) [2, 3] [%]	Herbicidal activity SETVI (Setaria viridis) [2, 3] [%]	Herbicidal activity STEME (Stellaria media) [2, 3] [%]	Herbicidal activity VERPE (Veronica persica) [2, 3] [%]	Herbicidal activity VIOTR (Viola tricolor) [2, 3] [%]	also measured
Cn1nnnc1NC(=O)c1ccc(C(F)(F)F)c2c1SCCCS2 [2-5]																					Herbicidal activity ABUTH (Abutilon theophrasti) [1, 3]: 100%; Herbicidal activity AMARE (Amaranthus retroflexus) [1, 3]: 100%; Herbicidal activity ECHCG (Echinochloa crus-galli) [1, 3]: 100%; Herbicidal activity MATIN (Matricaria inodora) [1, 3]: 100%; Herbicidal activity STEME (Stellaria media) [1, 3]: 100%; Herbicidal activity VERPE (Veronica persica) [1, 3]: 100%; Herbicidal activity VIOTR (Viola tricolor) [1, 3]: 100%; Herbicidal activity ABUTH (Abutilon theophrasti) [2, 4]: 90%; Herbicidal activity AMARE (Amaranthus retroflexus) [2, 4]: 90%; Herbicidal activity ECHCG (Echinochloa crus-galli) [2, 4]: 90%; Herbicidal activity VIOTR (Viola tricolor) [2, 4]: 80%
Cn1nnnc1NC(=O)c1ccc(C(F)(F)F)c2c1OCCCS2 [2-13, 6-(trifluoromethyl)-3,4-dihydro-2H-1,5-benzoxathiepine-N-(1-methyltetrazol-5-yl)-8-carboxamide]	100	100	100	90	100	100	100	100	100	100	100	100	100	100	100	80	100	100	100	100	Herbicidal action against ABUTH (Abutilon theophrasti) [1, 6]: 100%; Herbicidal action against ALOMY (Alopecurus myosuroides) [1, 6]: 100%; Herbicidal action against AVEFA (Avena fatua) [1, 6]: 100%; Herbicidal action against MATIN (Matricaria inodora) [1, 6]: 100%; Herbicidal action against SETVI (Setaria viridis) [1, 6]: 100%; herbicidal activity compared to that of compound No. A-117 ([1]; pre-emergence, comparative experiment, numerous harmful plants): superiority of the compound according to the invention was demonstrated clearly; Herbicidal action against ABUTH (Abutilon theophrasti) [2, 7]: 100%; Herbicidal action against ALOMY (Alopecurus myosuroides) [2, 7]: 90%; Herbicidal action against AVEFA (Avena fatua) [2, 7]: 100%; Herbicidal action against PHPBU [2, 7]: 90%; Herbicidal action against POLCO (Polygonum convolvulus) [2, 7]: 80%; herbicidal activity compared to that of compound No. A-117 ([2]; post-emergence, comparative experiment, numerous harmful plants): superiority of the compound according to the invention was demonstrated clearly
Cn1nnnc1NC(=O)c1ccc(C(F)(F)F)c2c1OCCC[S+]2[O-] (stereo not drawn) [2-16]	100	100	80	100	100	100	80	80	100	100	100	100	100	100	100	100	90	100	90	100	
Cn1nnnc1NC(=O)c1ccc(C(F)(F)F)c2c1OCCCS2(=O)=O [2-19]	100	100	80	100	100	100	100	90	100	100	100	100	100	100	100	90	90	100	100	100	
Cn1nnnc1NC(=O)c1ccc(C(F)(F)F)c2c1[S+]([O-])CCCS2 (stereo not drawn) [2-76]																					Herbicidal activity AMARE (Amaranthus retroflexus) [1, 3]: 90%; Herbicidal activity VIOTR (Viola tricolor) [1, 3]: 90%; Herbicidal activity ABUTH (Abutilon theophrasti) [2, 4]: 80%; Herbicidal activity ECHCG (Echinochloa crus-galli) [2, 4]: 90%
